From patent US7618975B2, “4-arylamino-quinazolines and analogs as activators of caspases and inducers of apoptosis and the use thereof” (Myriad Pharmaceuticals, Inc., priority 2003, dated 2009)
Where a name gives a salt, the structure may show the parent alone. Read-outs that look alike come from different tables or passages of the source.

Columns and labels:
[1] = biological target: T1, Human Type II Topoisomerase (p170 Form) (Homo sapiens, UniProt P11388); assay: Photo-crosslinking of radiolabeled compound to Topoisomerase II; type: binding; conditions: 50 nM, 60 minutes, UV 254 nm; FIG. 3
T1 construct: purchased TopoGEN, Inc., Columbus, Ohio
T1 sequence (P11388 whole entry): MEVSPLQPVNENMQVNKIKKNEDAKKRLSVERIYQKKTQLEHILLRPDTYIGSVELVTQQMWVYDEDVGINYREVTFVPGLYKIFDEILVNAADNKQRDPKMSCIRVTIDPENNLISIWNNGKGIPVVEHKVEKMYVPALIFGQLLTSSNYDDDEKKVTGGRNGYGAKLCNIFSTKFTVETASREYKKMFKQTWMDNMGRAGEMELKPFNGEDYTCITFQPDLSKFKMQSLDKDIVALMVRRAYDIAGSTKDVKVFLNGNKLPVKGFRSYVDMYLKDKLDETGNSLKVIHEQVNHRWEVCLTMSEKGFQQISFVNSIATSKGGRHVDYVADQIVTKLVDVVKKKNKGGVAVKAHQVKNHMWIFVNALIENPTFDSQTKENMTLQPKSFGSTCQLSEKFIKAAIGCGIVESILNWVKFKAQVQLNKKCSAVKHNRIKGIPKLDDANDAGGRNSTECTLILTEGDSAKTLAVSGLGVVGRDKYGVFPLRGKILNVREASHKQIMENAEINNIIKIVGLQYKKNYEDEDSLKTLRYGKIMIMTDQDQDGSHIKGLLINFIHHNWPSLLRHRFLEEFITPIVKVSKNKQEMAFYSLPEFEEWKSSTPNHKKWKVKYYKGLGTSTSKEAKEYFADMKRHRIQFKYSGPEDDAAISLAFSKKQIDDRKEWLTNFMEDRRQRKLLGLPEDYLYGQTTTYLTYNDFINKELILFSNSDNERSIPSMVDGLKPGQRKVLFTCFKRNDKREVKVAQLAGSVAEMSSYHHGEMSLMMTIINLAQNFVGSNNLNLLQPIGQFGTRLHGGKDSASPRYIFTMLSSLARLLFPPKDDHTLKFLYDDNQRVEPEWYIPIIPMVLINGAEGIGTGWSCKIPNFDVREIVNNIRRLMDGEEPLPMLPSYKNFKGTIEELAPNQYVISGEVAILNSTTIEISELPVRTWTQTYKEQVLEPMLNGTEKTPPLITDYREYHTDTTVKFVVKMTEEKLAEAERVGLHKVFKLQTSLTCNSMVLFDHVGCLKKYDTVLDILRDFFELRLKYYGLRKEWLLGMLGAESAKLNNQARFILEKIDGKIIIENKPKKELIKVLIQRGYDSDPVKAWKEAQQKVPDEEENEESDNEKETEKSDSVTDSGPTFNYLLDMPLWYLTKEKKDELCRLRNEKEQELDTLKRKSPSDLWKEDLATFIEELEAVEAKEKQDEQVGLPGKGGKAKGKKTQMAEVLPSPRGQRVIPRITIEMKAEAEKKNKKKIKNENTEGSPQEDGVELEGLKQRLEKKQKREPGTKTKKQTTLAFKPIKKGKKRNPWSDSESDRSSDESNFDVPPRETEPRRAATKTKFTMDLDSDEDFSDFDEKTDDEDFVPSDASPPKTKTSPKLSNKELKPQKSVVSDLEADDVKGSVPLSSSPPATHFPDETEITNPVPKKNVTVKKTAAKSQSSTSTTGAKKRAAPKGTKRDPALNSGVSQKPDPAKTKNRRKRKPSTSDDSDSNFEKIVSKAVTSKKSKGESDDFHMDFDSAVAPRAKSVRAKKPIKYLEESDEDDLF
Method: 30 Units (15 ul) Human Type II Topoisomerase (p170 Form) (from TopoGEN, Inc., Columbus, Ohio) was incubated with 50 nM radiolabeled Example 102 compound for 60 minutes at room temperature.
(Radiolabeled Example 102 compound stock is 16.67 uM, 60 Ci/mmol, 1 Ci/ml American Radiolabeled Chemicals, Inc., St. Louis, Mo. Samples were either UV irradiated (+) with a short wavelength UV Source (254 nm) for 10 minutes at a distance of 3.5 cm or not irradiated (−). 8 ul of 5× sample buffer (150 mM Tris, pH 6.8, 50% glycerol, 1% SDS, 50 mM dithiothreitol, 62 mg/ml bromophenol blue) was added to the samples and boiled for 5 minutes. The entire sample was then loaded onto a 6% Tris-Glycine SDS-gel (10 well, 1.5 mm thickness) (Invitrogen, Carlsbad, Calif.). The gel was stained with 1% Coomassie Brilliant Blue in 40% methanol, 7.5% acetic acid for 2 hours then de-stained in several changes of de-stainer (40% methanol, 7.5% acetic acid). The gel was then incubated in Amplify (Amersham, Piscataway, N.J.) for 30 minutes at room temperature and then dried down on Whatman filter paper at 80° C. for 2 hours on a gel dryer. The dried gel was put on Hyperfilm (Amersham) in a film cassette and placed at −80° C. for 5-7 days.

T-47D cells [2] = assay: Caspase cascade activation (N-(Ac-DEVD)-N′-ethoxycarbonyl-R110 fluorogenic substrate) in T-47D cells; type: cell-based, Human; conditions: for Caspase activity Ratio T-47D (24 hr) / Caspase activity Ratio T-47D (48 hr): ratio of net RFU to control; for EC50: Homo sapiens, T47D
[3] = tested on: tubulin (Cytoskeleton #ML113, MAP-rich); assay: Inhibition of tubulin polymerization (DAPI fluorescence); type: biochemical; conditions: 30 minutes preincubation, 30 minutes at 37° C.
Method: Lyophilized tubulin (Cytoskeleton #ML113, 1 mg, MAP-rich) was assayed for the effect of the test compound on tubulin polymerization as measured by change in fluorescence for 4′,6-diamidino-2-phenylindole (DAPI) (Barron, D. M. et al. Analytical Biochem., 2003, 315, 49-56.). 1 μl of serial dilutions of each test compound (from 100×DMSO stock) was added in 96 well plate format and preincubated for 30 minutes with 94 ul of the non-GTP supplemented tubulin supernatant. 5 μl of DAPI/GTP solution was added to initiate polymerization and incubated for 30 minutes at 37° C. Fluorescence was read with excitation 350 nm, emission wavelength 485 nm on a Tecan Spectraflour Plus. Polymerized tubulin (DMSO and with the tubulin stabilizer Taxol® (paclitaxel)) gives a higher DAPI fluorescence as compared to non-polymerized tubulin (vinblastine and colchicine used to determine baseline).

Topoisomerase I = biological target: T2, Topoisomerase I (Homo sapiens, UniProt P11387); assay: Topoisomerase I activity assay (relaxation of supercoiled DNA, gel); conditions: FIG. 2
T2 sequence (P11387 1-765): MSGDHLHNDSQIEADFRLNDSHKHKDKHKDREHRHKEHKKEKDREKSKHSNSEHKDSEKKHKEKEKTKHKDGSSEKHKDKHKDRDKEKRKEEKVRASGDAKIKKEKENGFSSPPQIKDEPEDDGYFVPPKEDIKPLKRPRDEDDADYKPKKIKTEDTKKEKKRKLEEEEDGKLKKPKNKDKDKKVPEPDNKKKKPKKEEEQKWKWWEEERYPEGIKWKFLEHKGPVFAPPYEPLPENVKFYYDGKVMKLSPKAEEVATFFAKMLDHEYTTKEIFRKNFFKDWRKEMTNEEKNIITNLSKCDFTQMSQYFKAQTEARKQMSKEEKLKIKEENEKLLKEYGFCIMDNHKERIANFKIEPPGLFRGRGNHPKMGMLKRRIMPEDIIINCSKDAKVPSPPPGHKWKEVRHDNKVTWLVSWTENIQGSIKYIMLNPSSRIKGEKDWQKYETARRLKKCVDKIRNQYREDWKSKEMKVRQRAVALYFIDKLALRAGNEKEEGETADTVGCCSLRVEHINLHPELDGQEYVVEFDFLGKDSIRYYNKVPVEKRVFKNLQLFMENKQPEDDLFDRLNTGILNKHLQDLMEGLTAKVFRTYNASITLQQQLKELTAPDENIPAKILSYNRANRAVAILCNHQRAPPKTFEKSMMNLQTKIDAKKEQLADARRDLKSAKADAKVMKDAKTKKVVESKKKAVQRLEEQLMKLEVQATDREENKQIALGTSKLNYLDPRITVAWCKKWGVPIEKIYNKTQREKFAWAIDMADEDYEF

Topoisomerase II = Topoisomerase II (Homo sapiens, UniProt P11388); assay: Topoisomerase II activity assay (relaxation of supercoiled DNA, gel); conditions: FIG. 1, Example 1 Compound at 100 μM
Chain of Topoisomerase II (P11388 whole entry): as the sequence (P11388 whole entry) above

DLD cells = assay: Inhibition of cell proliferation (GI50, CellTiter-Glo); type: cell-based; conditions: Homo sapiens; 48 h incubation
Method: (§1) T-47D, DLD, H1299, MX-1 and SW620 cells were grown and harvested as in Example 143. […] An aliquot of 45 μL of cells was added to a well of a 96-well microtiter plate containing 5 μL of a 10% DMSO in RPMI-1640 media solution without compound as the control sample for maximal cell proliferation (LMax). The samples were mixed by agitation and then incubated at 37° C. for 48 h in a 5% CO2-95% humidity incubator. After incubation, the samples were removed from the incubator and 25 μL of CellTiter-Glo™ reagent (Promega) was added. The samples were mixed by agitation and incubated at room temperature for 10-15 min. Plates were then read using a luminescent plate reader (Model SPECTRAfluor Plus, Tecan) to give Ltest values.
(§2) The samples were mixed by agitation and then incubated at 37° C. for 0.5 h in a 5% CO2-95% humidity incubator. After incubation, the samples were removed from the incubator and 25 μL of CellTiter-Glo™ reagent (Promega) was added. The samples were mixed by agitation and incubated at […] 10-15 min at room temperature in a 5% CO2-95% humidity incubator. Fluorescence was read as above, (LStart) defining luminescence for initial cell number used as baseline in GI50 determinations.

H1299 cells = assay: as above; type: cell-based; conditions: Homo sapiens, NCI-H1299; 48 h incubation
Method: as §1, §2

MX-1 cells = assay: as above; type: cell-based; conditions: Homo sapiens, MX1; 48 h incubation
Method: as §1, §2

SW620 cells = assay: as above; type: cell-based; conditions: Homo sapiens, SW-620; 48 h incubation
Method: as §1, §2

T-47D cells [4] = assay: as above; type: cell-based; conditions: Homo sapiens, T47D; 48 h incubation
Method: as §1, §2

[5] = biological target: tyrosine kinase of Epidermal Growth Factor Receptor (Homo sapiens, UniProt P00533); conditions: Rewcastle et al. 1995; read-out: IC50 EGFR tyrosine kinase; cited from earlier work
Chain of tyrosine kinase of Epidermal Growth Factor Receptor (P00533 25-1210): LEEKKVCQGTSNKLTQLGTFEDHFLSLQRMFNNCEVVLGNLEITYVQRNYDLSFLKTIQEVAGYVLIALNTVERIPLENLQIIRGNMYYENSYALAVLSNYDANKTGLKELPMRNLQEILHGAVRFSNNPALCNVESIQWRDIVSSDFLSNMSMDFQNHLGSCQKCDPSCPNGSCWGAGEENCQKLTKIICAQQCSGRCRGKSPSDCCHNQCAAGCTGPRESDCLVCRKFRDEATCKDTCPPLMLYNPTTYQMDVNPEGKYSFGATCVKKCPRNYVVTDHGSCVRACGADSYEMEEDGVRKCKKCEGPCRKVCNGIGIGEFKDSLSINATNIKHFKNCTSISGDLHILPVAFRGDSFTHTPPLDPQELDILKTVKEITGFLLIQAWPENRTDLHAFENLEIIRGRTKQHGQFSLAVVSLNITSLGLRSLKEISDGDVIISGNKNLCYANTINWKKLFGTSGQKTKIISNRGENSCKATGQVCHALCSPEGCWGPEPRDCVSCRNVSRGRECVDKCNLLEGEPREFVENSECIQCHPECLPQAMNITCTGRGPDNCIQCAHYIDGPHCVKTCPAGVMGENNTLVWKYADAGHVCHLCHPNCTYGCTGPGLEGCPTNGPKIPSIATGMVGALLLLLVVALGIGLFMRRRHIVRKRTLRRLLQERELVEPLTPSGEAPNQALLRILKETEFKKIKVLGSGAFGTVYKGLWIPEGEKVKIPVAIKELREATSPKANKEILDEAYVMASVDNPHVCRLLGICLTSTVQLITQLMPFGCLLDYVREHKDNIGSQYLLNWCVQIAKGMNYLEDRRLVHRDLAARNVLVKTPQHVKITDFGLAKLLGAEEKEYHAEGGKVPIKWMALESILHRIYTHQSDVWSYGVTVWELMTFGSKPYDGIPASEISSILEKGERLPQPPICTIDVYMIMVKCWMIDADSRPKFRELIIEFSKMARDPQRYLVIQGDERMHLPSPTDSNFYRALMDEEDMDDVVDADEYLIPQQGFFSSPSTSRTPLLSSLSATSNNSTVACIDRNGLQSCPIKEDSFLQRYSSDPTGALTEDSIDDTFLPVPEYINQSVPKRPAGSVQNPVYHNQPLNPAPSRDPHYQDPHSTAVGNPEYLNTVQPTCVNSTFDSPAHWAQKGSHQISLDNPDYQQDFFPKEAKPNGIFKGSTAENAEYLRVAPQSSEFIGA

Radiolabeled (4-Azido-phenyl)-(2-methyl-quinazolin-4-yl)-methyl-amine [Radiolabeled Example 102 compound]
Binding to Topoisomerase II (UV crosslinking) [1]: binds sufficiently well to Topoisomerase II to crosslink to the enzyme when photoactivated

COc1ccc(N(C)c2nc(Cl)nc3ccccc23)cc1 [Example 1]
Caspase activity Ratio T-47D (24 hr) (T-47D cells [2]; T-47D, 24 hr): 8.7
IC50 [3]: < 500 nM
Effect on topoisomerase I-dependent relaxation of supercoiled DNA (Topoisomerase I): no apparent effect
Inhibition of topoisomerase II-dependent relaxation of supercoiled DNA (Topoisomerase II): inhibition of DNA relaxation is substantial

COc1ccc(N(C)c2ncnc3ccccc23)cc1 [Example 34, (4-Methoxy-phenyl)-methyl-quinazolin-4-yl-amine]
EC50 (T-47D cells [2]; T-47D, 24 hr, read-out: Caspase potency EC50 (nM) T-47D (24 hr)): 7 nM
EC50 (T-47D cells [2]; Table III, time not printed (values repeat Table I 24 hr or 48 hr), read-out: Caspase activation (EC50 nM)): 7 nM
Caspase activity Ratio T-47D (24 hr) (T-47D cells [2]; T-47D, 24 hr): 7.5
GI50 (DLD cells): 76 nM
GI50 (H1299 cells): 59 nM
GI50 (MX-1 cells): 73 nM
GI50 (SW620 cells): 55 nM
GI50 (T-47D cells [4]): 503 nM
IC50 [3]: 1000 nM

COc1ccccc1N(C)c1nc(Cl)nc2ccccc12 [Example 44, (2-Chloro-quinazolin-4-yl)-(2-methoxy-phenyl)-methyl-amine]
Caspase activity Ratio T-47D (48 hr) (T-47D cells [2]; T-47D): 14.3
IC50 [3]: 10000 nM

COc1ccc(N(C)c2nc(NC/C=C(\C)CCC=C(C)C)nc3ccccc23)cc1 [Example 13, N^2-(3,7-Dimethyl-octa-2,6-dienyl)-N^4-(4-methoxy-phenyl)-N^4-methyl-quinazoline-2,4-diamine]
Caspase activity Ratio T-47D (24 hr) (T-47D cells [2]; T-47D, 24 hr): 8.9
IC50 [3]: 6000 nM

COc1ccc(OC)c(N(C)c2nc(Cl)nc3ccccc23)c1 [Example 42, (2-Chloro-quinazolin-4-yl)-(2,5-dimethoxy-phenyl)-methyl-amine]
Caspase activity Ratio T-47D (24 hr) (T-47D cells [2]; T-47D, 24 hr): 8.6
Caspase activity Ratio T-47D (48 hr) (T-47D cells [2]; T-47D): 14.6
IC50 [3]: 5000 nM

COc1ccc(N(C)c2ncnc3c2CCCC3)cc1 [Example 25]
Caspase activity Ratio T-47D (48 hr) (T-47D cells [2]; T-47D): 5.8
IC50 [3]: 2000 nM

COc1cc([C@@H]2c3cc4c(cc3[C@@H](O[C@@H]3O[C@@H]5CO[C@@H](C)O[C@H]5[C@H](O)[C@H]3O)[C@H]3COC(=O)[C@H]23)OCO4)cc(OC)c1O [VP-16, etoposide, reference compound]
Effect on topoisomerase I-dependent relaxation of supercoiled DNA (Topoisomerase I): no apparent effect

COc1ccc(N(C)c2nc(C)nc3ccccc23)cc1 [Example 72, (4-Methoxy-phenyl)-methyl-(2-methyl-quinazolin-4-yl)-amine hydrochloride]
Caspase activity Ratio T-47D (24 hr) (T-47D cells [2]; T-47D, 24 hr): 9.0
Caspase activity Ratio T-47D (48 hr) (T-47D cells [2]; T-47D): 7.4
IC50 [3]: < 1000 nM

CN(c1ccccc1)c1ncnc2ccccc12 [R1═Me, R2═R3═R4═H]
IC50 [5]: > 100000 nM
